Source: paper PMC6470784, “Effect of Stereochemical Configuration on the Transport and Metabolism of Catechins from Green Tea across Caco-2 Monolayers” (Molecules, 2019)
Where a name gives a salt, the structure may show the parent alone. Read-outs that look alike come from different tables or passages of the source.

Assays:
MRP2 [1] = assay: MRP2 mRNA level in Caco-2 cells (qRT-PCR); format: cell-based, human; conditions: 300 μmol/L, 2 h
Procedure: The Caco-2 cells were seeded in six-well plates (Corning Costar Co., NY, USA) at a density of 4 × 10^4 cells/cm^2, and were cultured for 21 days. After incubation with each tea catechins (300 μmol/L in full culture medium) for 2 h or 24 h, the total RNA from the Caco-2 cells were isolated with a Total RNA Kit (Aidlab, Beijing, China). First-strand cDNA was synthesized using a cDNA synthesis Kit (Aidlab, Beijing, China). The gene expression of MRP2 was examined by quantitative real-time PCR with the SYBR Green qPCR Mix (Aidlab, Beijing, China) in an ABI7500 Real-Time System (Applied Biosystems, USA). The reaction was carried out in a 10 μL RT-reaction mixture containing 5 μL 2 × SYBR Green qPCR Mix, 0.2 μL forward and reverse primers (10 μmol/μL), and water to a final volume of 10 μL, and was performed under the following cycling conditions: an initial denaturing step of 10 min at 95 °C, followed by 40 cycles consisting of 5 s at 95 °C and 34 s at 60 °C.
All of the qPCR experiments were repeated in three biologicals. The data were analyzed using the 2-ΔΔCT method. All of the primers were synthesized by Sangon Biotech (Shanghai, China), as previously described, and their sequences are depicted in Table 3.

MRP2 [2] = assay: MRP2 protein level in Caco-2 cells (Western blot); format: cell-based, human; conditions: 300 μmol/L, 2 h
Procedure: After being washed by precooled PBS buffer three times, the total lysate was prepared on ice from 5 to 8 × 10^6 cells by lysis in a 150 μL Radio Immunoprecipitation Assay (RIPA) Lysis buffer containing 1% (v/v) Phenylmethanesulfonyl fluoride (PMSF) (Beyotime, Shanghai, China). The lysates were centrifuged at 13,000 rpm for 20 min at 4 °C, after mixing uniformity. The protein-containing supernatant was collected and the protein content was determined using the Bio-Rad protein assay. Western blotting was performed according to standard techniques, as previously described. In each lane of a Bio-Rad minigel system, 10 μg of protein was loaded. For the detection of BCRP, P-glycoprotein (MDR1), and MRP2, the following polyclonal antibodies were used: rabbit anti-BCRP (1:1000), rabbit anti-P-glycoprotein (1:1000), and rabbit anti-MRP2 (1:600). Horseradish peroxidase (HRP)-conjugated goat anti-rabbit (1:3000) were used as the secondary antibodies. As a loading control, the expression of β-actin was determined using an antibody against β-actin (1:40,000). Enhanced chemiluminescence (ECL) solutions were used for chemiluminescence.

[3] = Bidirectional transepithelial transport across Caco-2 monolayers (Papp, efflux ratio), with and without MK571; conditions: human; for Papp A→B at 300 μmol/L / Papp at 300 μmol/L / Papp B→A at 300 μmol/L: Caco-2, pH 6
Procedure: (§1) For the transport experiments, the cells were seeded in 24-mm i.d Transwell® inserts (polycarbonate membrane, 0.4 μM pore size, Corning Costar Co., (Corning, NY, USA) in six-well plates at a density of 4 × 10^5 cells/well, and were cultured for 21 days prior to the transport experiments. To monitor the integrity of the cell layers, transepithelial electrical resistance (TEER) values were measured using a Millicell-ERS Voltohmmeter (Millipore Corp, Bedford, MA, USA). TEER values above 513.7 Ω·cm^2 in the culture medium were selected for the transport experiment.
(§2) For the transport of GTCs across the Caco-2 monolayers, the inserts were gently washed twice and were equilibrated at 37 °C for 30 min with 0.01 M modified phosphate buffer saline (PBS+), which was supplemented with 0.45 M calcium chloride and 0.4 M potassium chloride, and adjusted to pH 6.0 [7]. In the transepithelial transport, GTCs at different concentrations in PBS+ (DMSO less than 0.5%) were loaded into the apical (AP) or basolateral (BL) side, the so-called donor side. The plate was then incubated at 37 °C. At designated time intervals, aliquots of 0.5 mL of sample were taken from the other side, the so-called receiver side, and then replaced with an equal volume of PBS+. After that, the samples were dried with a CoolSafe freeze dryer (LaboGene ApS, Bjarkesvej, Denmark) at −110 °C, and stored at −20 °C until analysis.
(§3) For the inhibition of transport, MK571 was used at a concentration of 93.11 μmol/L (50 μg/mL with a DMSO less than 0.3%). The cells were preincubated with the inhibitor for 30 min. Then, the bi-directional transport studies of the GTCs in the presence of MK-571 at both the donor and receiver side were performed as for the transport method described above.
(§4) The transport samples were analyzed by an Agilent LC 1260 system (Agilent Technologies, CA, USA) after redissolving with 50 μL methyl into vial inserts (100 uL; Agilent Technologies, CA, USA). The separation was performed on an Octadecylsilyl (ODS) reversed-phase column (4.6 mm i.d. × 250 mm, 4.5 μm; TC-C18, Agilent Technologies) using a diode array detector (DAD) at 278 nm. The mobile phase consisted of 15% methanol and 0.1% formic acid at a flow-rate of 0.8 mL/min.
(§5) The values were expressed as the mean ± standard deviation (SD) of three replications. The statistical significances of the difference between the various groups were analyzed using the Fisher’s least significant difference (LSD) procedure. For comparison between the two groups, the Student’s t-test was used. The differences were considered to be significant when p < 0.05.

BCRP [4] = assay: BCRP mRNA level in Caco-2 cells (qRT-PCR); format: cell-based, human; conditions: 2 h
Procedure: All of the qPCR experiments were repeated in three biologicals. The data were analyzed using the 2-ΔΔCT method [39]. All of the primers were synthesized by Sangon Biotech (Shanghai, China), as previously described [40], and their sequences are depicted in Table 3.

in vitro = conditions: human; for Papp A→B at 300 μmol/L / Papp B→A at 300 μmol/L / Papp at 300 μmol/L: Caco-2, pH 6; for efflux ratio: Caco-2, pH 6, Efflux ratio in the absence of MK571
Procedure: as §1, §2, §3, §4, §5

[5] = design: method as in PMID 10909265; conditions: rats, cited from earlier work
[6] = cited from earlier work
P-glycoprotein = system: P-glycoprotein; design: method as in PMID 15285844; conditions: KB-C2 cells; cited from earlier work
MRP2 [7] = system: MRP2; design: method as in PMID 23146761; conditions: rats, 24 h; cited from earlier work
BCRP [8] = system: BCRP; design: method as in PMID 20149610; conditions: MCF-7 cell line, 100 μg/mL; cited from earlier work
Caco-2 cell monolayers = assay: Bidirectional transepithelial transport across Caco-2 monolayers (Papp, efflux ratio), with and without MK571; conditions: Caco-2 monolayers, MK571 93.11 μmol/L
Procedure: as §1, §2, §3, §4, §5

[9] = Caco-2, pH 6, Efflux ratio in the absence of MK571, Caco-2 monolayers, no MK571
[10] = Caco-2, pH 6, with MK571 93.11 μmol/L (50 μg/mL), Efflux ratio in the presence of MK571, Caco-2 monolayers, MK571 93.11 μmol/L
[11] = rats, intragastric administration

Compound	Increase of mRNA levels of MRP2 (MRP2 [1]) [%]	Increase of protein level of MRP2 (MRP2 [2]) [%]	Papp A→B at 300 μmol/L [3] [×10⁻⁶ cm/s]	efflux ratio [3, 9]	efflux ratio [3, 10]	BCRP gene expression (BCRP [4])	Papp A→B at 300 μmol/L (in vitro) [×10⁻⁶ cm/s]	Papp B→A at 300 μmol/L (in vitro) [×10⁻⁶ cm/s]	efflux ratio (in vitro)	Papp B→A at 300 μmol/L [3] [×10⁻⁶ cm/s]	Cellular accumulation of rhodamine-123 and daunorubicin (P-glycoprotein)	also measured
Oc1cc(O)c2c(c1)O[C@H](c1ccc(O)c(O)c1)[C@@H](O)C2 [C, (+)-catechin]	14.05	58.33	0.156 ± 0.011	16.7	1.34							Papp at 300 μmol/L [3]: < 1 ×10⁻⁶ cm/s
O=C(O[C@@H]1Cc2c(O)cc(O)cc2O[C@H]1c1ccc(O)c(O)c1)c1cc(O)c(O)c(O)c1 [CG, (−)-catechin gallate]	123.09	132.00				upregulation	0.139 ± 0.012	0.651 ± 0.042	4.68			Papp at 300 μmol/L (in vitro): < 1 ×10⁻⁶ cm/s
Oc1cc(O)c2c(c1)O[C@H](c1ccc(O)c(O)c1)[C@H](O)C2 [EC, (−)-epicatechin]	41.67	60.00	0.152 ± 0.017	11.2	1.06	upregulation				1.69 ± 0.163		Plasma concentration following oral administration ([5]; 250 mg/kg): 53 µM; Bioavailability [6, 11]: 31%
O=C(O[C@@H]1Cc2c(O)cc(O)cc2O[C@@H]1c1ccc(O)c(O)c1)c1cc(O)c(O)c(O)c1 [ECG, (−)-epicatechin gallate]	85.18	24.67				upregulation	0.138 ± 0.009	0.387 ± 0.031	2.82		increase the cellular accumulation	Plasma concentration following oral administration ([5]; 650 mg/kg): 33.5 µM
Oc1cc(O)c2c(c1)O[C@H](c1cc(O)c(O)c(O)c1)[C@H](O)C2 [EGC, (−)-epigallocatechin]	103.58	35.67					0.246 ± 0.01	0.674 ± 0.062	2.74		increase the cellular accumulation	Bioavailability ([6]; rat, in vivo, po): 13.7%
O=C(O[C@@H]1Cc2c(O)cc(O)cc2O[C@@H]1c1cc(O)c(O)c(O)c1)c1cc(O)c(O)c(O)c1 [EGCG, (−)-epigallocatechin gallate]	89.57	42.67	0.093 ± 0.008	2.75	1.05	upregulation				0.257 ± 0.01	increase the cellular accumulation	Plasma concentration following oral administration ([5]; 2500 mg/kg): 244.3 µM; Protein level of MRP2 on the hepatocyte canalicular membrane (MRP2 [7]): significantly decreased; mRNA transcription and protein level of BCRP (BCRP [8]): not changed; Bioavailability [6, 11]: 0.1%
Oc1cc(O)c2c(c1)O[C@@H](c1cc(O)c(O)c(O)c1)[C@H](O)C2 [GC, (+)-gallocatechin]	119.33	37.67					0.264 ± 0.021	0.875 ± 0.028	3.32			Papp at 300 μmol/L (in vitro): < 1 ×10⁻⁶ cm/s
O=C(O[C@@H]1Cc2c(O)cc(O)cc2O[C@H]1c1cc(O)c(O)c(O)c1)c1cc(O)c(O)c(O)c1 [GCG, (−)-gallocatechin gallate]	133.15	20.67	0.103 ± 0.021	2.84	1.24	upregulation				0.293 ± 0.013		Papp at 300 μmol/L [3]: < 1 ×10⁻⁶ cm/s
CN(C)C(=O)CCSC(SCCC(=O)O)c1cccc(/C=C/c2ccc3ccc(Cl)cc3n2)c1 (stereo not shown) [MK-571, MK-571 sodium salt hydrate, reference compound]												Effect of MK-571 on the efflux of eight catechins (Caco-2 cell monolayers): significantly inhibit
